Laboratory results taken from publication PMC7619385 (ACS infectious diseases, 2025).
Like-named read-outs stand apart in the source and are kept apart here.

Biological target: T1, LmxCLK1 (Leishmania mexicana, UniProt E9AMP2)
T1 sequence (E9AMP2 1-422): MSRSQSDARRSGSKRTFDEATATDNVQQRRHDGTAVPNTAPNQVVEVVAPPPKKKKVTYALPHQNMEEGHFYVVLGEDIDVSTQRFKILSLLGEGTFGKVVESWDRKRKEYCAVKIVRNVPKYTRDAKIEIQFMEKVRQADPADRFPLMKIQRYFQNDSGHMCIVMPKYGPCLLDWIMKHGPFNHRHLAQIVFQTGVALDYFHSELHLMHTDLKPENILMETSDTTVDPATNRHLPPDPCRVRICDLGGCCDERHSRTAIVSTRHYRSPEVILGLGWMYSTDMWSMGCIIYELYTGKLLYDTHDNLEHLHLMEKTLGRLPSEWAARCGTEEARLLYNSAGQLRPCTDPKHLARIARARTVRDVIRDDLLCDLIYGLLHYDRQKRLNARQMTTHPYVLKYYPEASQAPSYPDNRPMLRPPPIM
Assay: biochemical
Type: binding

[1] = DSF, 10 µM compound, 2 µM LmxCLK1, Run 1, read-out: ΔTm Run 1
[2] = DSF, 10 µM compound, 2 µM LmxCLK1, Run 2, read-out: ΔTm Run 2
[3] = DSF, 10 µM compound, 2 µM LmxCLK1, mean of two runs, read-out: ΔTm Average
[4] = DSF, 10 µM compound, 2 µM LmxCLK1, Run 1
[5] = DSF, 10 µM compound, 2 µM LmxCLK1, Run 2
[6] = DSF, 10 µM compound, 2 µM LmxCLK1, mean of two runs

Row | Compound | ΔTm at 10 µM [1] [°C] | ΔTm at 10 µM [2] [°C] | ΔTm at 10 µM [3] [°C] | ΔTm Run 1 [4] [°C] | ΔTm Run 2 [5] [°C] | ΔTm Average [6] [°C] | also measured
1 | Cc1nc(Nc2[nH]nc3c2CN(C(=O)N[C@H](CN(C)C)c2ccccc2)C3(C)C)c2sccc2n1 [PF-3758309] | 0.7 | 0.5 | 0.6 |  |  |  | 
2 | C=CC(=O)Nc1cccc(Oc2nc(Nc3ccc(N4CCN(C)CC4)cc3OC)ncc2Cl)c1 [WZ4002] | -0.1 | -0.3 | -0.2 |  |  |  | 
3 | NC(=O)Nc1cc(-c2cccc(F)c2)sc1C(=O)N[C@H]1CCCNC1 [AZD7762] | 3.5 | 3.1 | 3.3 |  |  |  | 
4 | Cc1ccc(C(=O)Nc2cccc(C(F)(F)F)c2)cc1Nc1nc(-c2cccnc2)nc2c1cnn2C [NVP-BHG712] |  |  |  | 0.1 | -0.3 | -0.1 | 
5 | CCc1cncnc1N1CCN(Cc2nc3ccc(C(F)(F)F)cc3[nH]2)CC1 [PF-4708671] |  |  |  |  |  |  | ΔTm Average: -0.1; ΔTm Run 1: 0.1 °C; ΔTm Run 2: -0.2
6 | CCc1cc(Nc2nccc(-c3c(-c4ccc(OC)c(C(=O)Nc5c(F)cccc5F)c4)nc4ccccn34)n2)c(OC)cc1N1CCC(N2CCN(S(C)(=O)=O)CC2)CC1 [GSK1904529A] |  |  |  |  |  |  | ΔTm Average: 0.2 °C; ΔTm Run 1: 0.2 °C; ΔTm Run 2: 0.1 °C
7 | COc1c(C)c(C(=O)c2ccc(N)c(C(=O)[O-])c2)n2ccccc12.[Na+] [SSR128129E] |  |  |  |  |  |  | ΔTm Average: -0.1; ΔTm Run 1: -0.1; ΔTm Run 2: -0.1
8 | Oc1ccc(Nc2nc(-c3ccc(Cl)cc3)cs2)cc1 [SKI II] |  |  |  | 0.1 | 0.1 | 0.1 | 
9 | CCn1c(-c2nonc2N)nc2c(C#CC(C)(C)O)ncc(OC[C@H]3CCCNC3)c21 [GSK690693] | 0.1 | -0.3 | -0.1 |  |  |  | 
10 | CCCS(=O)(=O)Nc1ccc(F)c(C(=O)c2c[nH]c3ncc(-c4ccc(Cl)cc4)cc23)c1F [Vemurafenib (PLX4032)] |  |  |  | -0.1 | -0.1 | -0.1 | 
11 | Nc1ncnc2c1c(-c1cccc(OCc3ccccc3)c1)cn2[C@H]1C[C@@H](CN2CCC2)C1 [NVP-AEW541] | 0.1 | -0.1 | 0 |  |  |  | 
12 | CNC(=O)c1cc(COc2nnc(Nc3ccc(Cl)cc3)c3ccoc23)ccn1 [Telatinib] | -0.3 | -0.5 | -0.4 |  |  |  | 
13 | COCCOc1ccc2c(c1)ncn2-c1ccc2cccc(N3CCC(N)CC3)c2n1 [CP-673451] | 0.1 | 0 | 0 |  |  |  | 
14 | CC(C)(O)CC(=O)NCCn1ccc2ncnc(Nc3ccc(Oc4cccc(C(F)(F)F)c4)c(Cl)c3)c21 [TAK-285] | -0.5 | -0.2 | -0.3 |  |  |  | 
15 | Cc1ccc(-n2nc(C(C)(C)C)cc2NC(=O)Nc2ccc(OCCN3CCOCC3)c3ccccc23)cc1 [BIRB 796 (Doramapimod)] |  |  |  | 0.5 | 0.4 | 0.4 | 
16 | Cc1cc(C(=O)NOCCO)c(Nc2ccc(I)cc2F)n(C)c1=O [AZD8330] | 0.5 | 0.2 | 0.3 |  |  |  | 
17 | S-Ruxolitinib (INCB018424) |  |  |  | 0.6 | 0.6 | 0.6 | 
18 | CN(c1ncccc1CNc1nc(Nc2ccc3c(c2)CC(=O)N3)ncc1C(F)(F)F)S(C)(=O)=O [PF-562271] |  |  |  | 0.3 | -0.1 | 0.1 | 
19 | N#Cc1c(NC(=O)c2cccc3ccccc23)sc2c1CCCC2 [JNK Inhibitor IX] |  |  |  | 0.3 | -0.1 | 0.1 | 
20 | CC[C@@H]1C(=O)N(C)c2cnc(Nc3ccc(C(=O)N[C@H]4CC[C@H](N5CCN(CC6CC6)CC5)CC4)cc3OC)nc2N1C(C)C [Volasertib (BI 6727)] |  |  |  | 0.3 | 0.0 | 0.2 | 
21 | Cc1cc(Nc2cc(N3CCN(C)CC3)nc(Sc3ccc(NC(=O)C4CC4)cc3)n2)n[nH]1 [VX-680 (Tozasertib)] |  |  |  | -0.3 | -0.4 | -0.3 | 
22 | CCOc1ccn(-c2ccc(F)cc2)c(=O)c1C(=O)Nc1ccc(Oc2ccnc(N)c2Cl)c(F)c1 [BMS-777607] | 0.5 | -0.2 | 0.2 |  |  |  | 
23 | CC1=C(C(=O)Nc2cc3cn[nH]c3cc2F)C(c2ccc(C(F)(F)F)cc2)CC(=O)N1 (stereo not drawn) [GSK429286A] | 0.1 | 0.2 | 0.1 |  |  |  | 
24 | COc1ccc(N(C(=O)Oc2c(C)cccc2C)c2ccnc(Nc3ccc(N4CCN(C)CC4)cc3)n2)c(OC)c1 [WH-4-023] |  |  |  |  |  |  | ΔTm Average: -0.3; ΔTm Run 1: -0.4; ΔTm Run 2: -0.2

Row | Compound | ΔTm at 10 µM [1] [°C] | ΔTm at 10 µM [2] [°C] | ΔTm at 10 µM [3] [°C] | ΔTm Run 1 [4] [°C] | ΔTm Run 2 [5] [°C] | ΔTm Average [6] [°C] | also measured
25 | COC(=O)[C@]12CCC(C)(C)C[C@H]1[C@H]1C(=O)C=C3[C@@]4(C)C=C(C#N)C(=O)C(C)(C)[C@@H]4CC[C@@]3(C)[C@]1(C)CC2 [Bardoxolone Methyl] | 0.6 | 0.5 | 0.5 |  |  |  | 
26 | Cc1cnc(Nc2ccc(OCCN3CCCC3)cc2)nc1Nc1cccc(S(=O)(=O)NC(C)(C)C)c1 [TG101348 (SAR302503)] |  |  |  | 0.2 | 0.3 | 0.3 | 
27 | COc1ccc2c(Oc3ccc(NC(=O)c4c(C)n(CC(C)(C)O)n(-c5ccccc5)c4=O)nc3)ccnc2c1 [AMG-458] |  |  |  | 0.9 | 1.0 | 1.0 | 
28 | Cc1ccccc1-n1c(Cn2ncc3c(N)ncnc32)nc2cccc(C)c2c1=O [PIK-293] |  |  |  | 0.1 | -0.2 | -0.1 | 
29 | FC(F)c1nc2ccccc2n1-c1nc(N2CCOCC2)nc(N2CCOCC2)n1 [ZSTK474] | 0 | 0 | 0 |  |  |  | 
30 | Cc1cc([C@@H](C)Nc2ccccc2C(=O)O)c2nc(N3CCOCC3)cc(=O)n2c1 [AZD6482] | 0.1 | -0.1 | 0 |  |  |  | 
31 | CCc1nc(-c2cccc(C)c2)c(-c2ccnc(NC(=O)c3ccccc3)c2)s1 [TAK-715] | 0.5 | 0.8 | 0.7 |  |  |  | 
32 | CC(=O)c1c(C)c2cnc(Nc3ccc(N4CCNCC4)cn3)nc2n(C2CCCC2)c1=O.Cl [Palbociclib (PD-0332991) HCl] |  |  |  | 0.6 | 0.4 | 0.5 | 
33 | Cn1cc(-c2[nH]c3cc(NC(=O)[C@H](N)C4CCCCC4)cc4c3c2C=NNC4=O)cn1 [PF-477736] | 1.3 | 1.2 | 1.2 |  |  |  | 
34 | C[C@@H]1COCCN1c1cc(C2(S(C)(=O)=O)CC2)nc(-c2cccc3[nH]ccc23)n1 [AZ20] |  |  |  |  |  |  | ΔTm Average: -0.3; ΔTm Run 1: -0.2; ΔTm Run 2: -0.5
35 | COc1cc2c(Oc3ccc4[nH]c(C)cc4c3F)ncnc2cc1OCCCN1CCCC1 [Cediranib (AZD2171)] |  |  |  | 0.5 | 0.1 | 0.3 | 
36 | CCN(CC)CCCC(C)Nc1nc(C)cc(Nc2ccc3nc(C)cc(N)c3c2)n1 (stereo not drawn) [NSC 23766] |  |  |  | 0.0 | -0.1 | 0.0 | 
37 | CN1CCN(c2ccc(OC(F)(F)F)c(Nc3ncc4c(n3)-c3c(c(C(N)=O)nn3CCO)CC4)c2)CC1 [NMS-P937 (NMS1286937)] |  |  |  | 0.0 | 0.0 | 0.0 | 
38 | Nc1nccc(Oc2ccc(NC(=O)c3c[nH]cc(-c4ccc(F)cc4)c3=O)cc2F)c1Cl [BMS-794833] | -0.1 | -0.4 | -0.3 |  |  |  | 
39 | OCCn1cc(-c2cnc3nnn(Cc4ccc5ncccc5c4)c3n2)cn1 [PF-04217903] |  |  |  |  |  |  | ΔTm Average: 0.2 °C; ΔTm Run 1: 0.1 °C; ΔTm Run 2: 0.3 °C
40 | N#Cc1ccc2[nH]c(O)c(-c3ccc(CN4CCOCC4)cn3)c2c1 [AZD1080] | 0.1 | -0.2 | -0.1 |  |  |  | 
41 | O=c1cc(CN2CCOCC2)occ1OCCCCCSc1ccnc2cc(C(F)(F)F)ccc12 [EHT 1864] |  |  |  | 0.1 | -0.3 | -0.1 | 
42 | Cc1c(F)cc(C(=O)NC2CC2)cc1-c1ccc(C(=O)NCC(C)(C)C)cn1 [Losmapimod (GW856553X)] |  |  |  | 0.4 | 0.1 | 0.2 | 
43 | O=C(O)c1ccc(Nc2ncc3c(n2)-c2ccc(Cl)cc2C(c2c(F)cccc2F)=NC3)cc1 [MLN8054] | 0.3 | 0.1 | 0.2 |  |  |  | 
44 | Cc1cc(C)nc(NS(=O)(=O)c2ccc(NC(=S)NC(=O)COc3ccc(Br)cc3Cl)cc2)n1 [ZCL278] |  |  |  | 0.1 | -0.1 | 0.0 | 
45 | CCN1CCN(C(=O)Cc2ccc(Nc3ncc(F)c(Nc4ccc(C(=O)Nc5ccccc5Cl)cc4)n3)cc2)CC1 [Aurora A Inhibitor I] |  |  |  | 0.0 | -0.1 | -0.1 | 
46 | COc1cc2nccc(Oc3ccc(NC(=O)Nc4ccc(F)cc4F)c(F)c3)c2cc1OC [Ki8751] |  |  |  | 0.0 | -0.2 | -0.1 | 
47 | CCO.N#CC(=C(/N)Sc1ccccc1N)/C(C#N)=C(\N)Sc1ccccc1N [U0126-EtOH] |  |  |  |  |  |  | ΔTm Average: -0.1; ΔTm Run 1: -0.4; ΔTm Run 2: 0.1 °C
